A value given as a limit tells only on which side of the number the result lay.

Assay [1] has as its system mouse i.p. maximal electroshock seizure protection, ED50. Nature of the assay: seizure model ED50 and toxic TD50 values – quantitative, MES, scMET, kindled rat, Frings mice, in vivo study, summary (AID 424).
Assay in assay [2]: as above
Where [3] appears, read: measured here: kindled rat ED50.

By ED50 is commonly meant the dose that gives a 50% effect, or the effect in half of the subjects. As a reminder, the TD50 is the 50% point of the dose-response relation for the toxic effect studied. Low values mean harm at a small dose, high ones harm only at a large dose. Regarding `CCC1(c2ccccc2)C(=O)NC(=O)NC1=O`, the 50% effective dose (ED50) was 11.3 mg/kg in assay [1]; 19.7 mg/kg in assay [1] (setting [3]); 37.7 mg/kg in assay [2] (i.p. mouse scBic ED50); 13.9 mg/kg in assay [2] (i.p. mouse scMET ED50); 27.5 mg/kg in assay [2] (i.p. mouse scPic ED50); 2.61 mg/kg in assay [2] (i.p. rat MES ED50). Besides, the ED50 in assay [2] (oral rat MES ED50) worked out at 8.26 mg/kg; in assay [2] (oral rat scMET ED50), 26.1 mg/kg. The TD50 in assay [2] (i.p. mouse neurotoxicity TD50) amounted to 45.5 mg/kg; in assay [2] (oral rat toxicity TD50), 51 mg/kg.
For `CCN(CC)CC(=O)Nc1c(C)cccc1C`, the ED50 is 14.4 mg/kg in assay [1]; more than 70 mg/kg in assay [2] (i.p. mouse scBic ED50); more than 66 mg/kg in assay [2] (i.p. mouse scMET ED50); more than 70 mg/kg in assay [2] (i.p. mouse scPic ED50); 21 mg/kg in assay [2] (oral mouse MES ED50); more than 140 mg/kg in assay [2] (oral mouse scMET ED50). In addition, the ED50 was 31.2 mg/kg in assay [2] (oral rat MES ED50) and more than 250 mg/kg in assay [2] (oral rat scMET ED50). In addition, the TD50 in assay [2] (i.p. mouse neurotoxicity TD50) came out at 65.1 mg/kg; in assay [2] (oral rat toxicity TD50), 283 mg/kg.
On to `CCC1(C)CC(=O)NC1=O` (configuration not stated), for which the ED50 in assay [2] (Frings audiogenic mouse ED50) is 328 mg/kg; in assay [2] (i.p. mouse scBic ED50) it was 272 mg/kg; in assay [2] (i.p. mouse scMET ED50) it was 136 mg/kg; in assay [2] (i.p. mouse scPic ED50) it was 226 mg/kg; in assay [2] (i.p. rat MES ED50), more than 220 mg/kg; in assay [2] (oral mouse MES ED50) it was more than 1000 mg/kg. Also, the values for the ED50 in assay [2] (oral mouse scMET ED50), in assay [2] (oral rat MES ED50) and in assay [2] (oral rat scMET ED50) were 203 mg/kg, more than 500 mg/kg and 167 mg/kg, respectively. Besides, the TD50 was 341 mg/kg in assay [2] (i.p. mouse neurotoxicity TD50) and more than 500 mg/kg in assay [2] (oral rat toxicity TD50).
Consider `NC(=O)N1c2ccccc2C=Cc2ccccc21`, for which the ED50 was 7.81 mg/kg in assay [1]; 28.2 mg/kg in assay [1] (setting [3]); 11.2 mg/kg in assay [2] (Frings audiogenic mouse ED50); more than 50 mg/kg in assay [2] (i.p. mouse scBic ED50); more than 50 mg/kg in assay [2] (i.p. mouse scMET ED50); 18.2 mg/kg in assay [2] (i.p. mouse scPic ED50). The ED50 in assay [2] (i.p. rat MES ED50) was 4.05 mg/kg; in assay [2] (oral mouse MES ED50) it was 11.9 mg/kg; in assay [2] (oral mouse scMET ED50), 40.9 mg/kg; in assay [2] (oral rat MES ED50), 5.35 mg/kg; in assay [2] (oral rat scMET ED50), more than 250 mg/kg. In addition, the TD50 in assay [2] (i.p. mouse neurotoxicity TD50) was 45.4 mg/kg; in assay [2] (oral rat toxicity TD50), 364 mg/kg.
For `O=C1CN=C(c2ccccc2Cl)c2cc([N+](=O)[O-])ccc2N1`, the ED50 in assay [1] is 25.5 mg/kg; in assay [1] (setting [3]), 0.79 mg/kg; in assay [2] (Frings audiogenic mouse ED50) it was 0.105 mg/kg; in assay [2] (i.p. mouse scBic ED50), 0.039 mg/kg; in assay [2] (i.p. mouse scMET ED50) it was 0.024 mg/kg; in assay [2] (i.p. mouse scPic ED50), 0.074 mg/kg. Also, the ED50 in assay [2] (i.p. rat MES ED50) was determined as 0.67 mg/kg; in assay [2] (oral mouse MES ED50), 42.8 mg/kg; in assay [2] (oral mouse scMET ED50) it was 0.03 mg/kg; in assay [2] (oral rat MES ED50) it was 7.86 mg/kg; in assay [2] (oral rat scMET ED50), 0.607 mg/kg. Also, the TD50 came to 0.264 mg/kg in assay [2] (i.p. mouse neurotoxicity TD50) and 2.38 mg/kg in assay [2] (oral rat toxicity TD50).

Values taken from PubChem BioAssay AID424 (Public Access to Neuroactive & Anticonvulsant Chemical …, 2006).
